In US9593108B2, “Compounds and methods for antiviral treatment” (PTC Therapeutics, Inc., priority 2009, dated 2017):

What was measured:
[1] = tested on: HCV replicon RNA (GenBank Accession No. AJ242654); assay: HCV Replicon Assay (replicon RNA reduction and/or Fluc reporter signal); assay type: cell-based, Hepatitis C virus; conditions: Hepatitis C virus, 72 h, replicon-containing cells cultured with test compound for up to 3 days
Summary of the method: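 IC50 values mostly reflect the drop in replicon RNA, though Fluc reporter signal may also be used. Compound incubated with cells carrying the bicistronic replicon for as long as 3 days; interferon served as positive control.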

Structure (SMILES)	IC50 [1] [µM]	melting point [°C]
Cc1cnc2c(c1)c(C#N)c(-c1ccc(S(=O)(=O)NC(C)(C)C(F)(F)F)cc1)n2C1CCC1 [Cpd 79, 4-(3-cyano-1-cyclobutyl-5-methyl-1H-pyrrolo[2,3-b]pyridin-2-yl)-N-(1,1,1-trifluoro-2-methylpropan-2-yl)benzenesulfonamide]	< 0.5	180 to 181
C[C@H](NS(=O)(=O)c1ccc(-c2c(C#N)c3cnc(Cl)cc3n2C2CCCC2)nc1)C(F)(F)F [Cpd 80, 6-(6-chloro-3-cyano-1-cyclopentyl-1H-pyrrolo[3,2-c]pyridin-2-yl)-N-[(2S)-1,1,1-trifluoropropan-2-yl]pyridine-3-sulfonamide]	< 0.5	235 to 237
C[C@@H](NS(=O)(=O)c1ccc(-c2c(C#N)c3cnc(Cl)cc3n2C2CCCC2)nc1)C(F)(F)F [Cpd 81, 6-(6-chloro-3-cyano-1-cyclopentyl-1H-pyrrolo[3,2-c]pyridin-2-yl)-N-[(2R)-1,1,1-trifluoropropan-2-yl]pyridine-3-sulfonamide]	< 0.5	239 to 240
N#Cc1c(-c2ccc(S(=O)(=O)NC(CF)CF)cn2)n(C2CCCC2)c2cc(Cl)ncc12 [Cpd 82, 6-(6-chloro-3-cyano-1-cyclopentyl-1H-pyrrolo[3,2-c]pyridin-2-yl)-N-(1,3-difluoropropan-2-yl)pyridine-3-sulfonamide]	< 0.5	231 to 233
N#Cc1c(-c2ccc(S(=O)(=O)NC3(C(F)(F)F)CC3)cn2)n(C2CCCC2)c2cc(Cl)ncc12 [Cpd 83, 6-(6-chloro-3-cyano-1-cyclopentyl-1H-pyrrolo[3,2-c]pyridin-2-yl)-N-[1-(trifluoromethyl)cyclopropyl]pyridine-3-sulfonamide]	< 0.5	225 to 227
CC1(NS(=O)(=O)c2ccc(-c3c(C#N)c4cnc(Cl)cc4n3C3CCCC3)nc2)CC1 [Cpd 84, 6-(6-chloro-3-cyano-1-cyclopentyl-1H-pyrrolo[3,2-c]pyridin-2-yl)-N-(1-methylcyclopropyl)pyridine-3-sulfonamide]	< 0.5	209 to 211
CC(C)NS(=O)(=O)c1cnc(-c2c(C#N)c3cnc(Cl)cc3n2C2CCCC2)nc1 [Cpd 85, 2-(6-chloro-3-cyano-1-cyclopentyl-1H-pyrrolo[3,2-c]pyridin-2-yl)-N-(propan-2-yl)pyrimidine-5-sulfonamide]	< 0.5	249 to 250
N#Cc1c(-c2ncc(S(=O)(=O)NC(CF)CF)cn2)n(C2CCCC2)c2cc(Cl)ncc12 [Cpd 86, 2-(6-chloro-3-cyano-1-cyclopentyl-1H-pyrrolo[3,2-c]pyridin-2-yl)-N-(1,3-difluoropropan-2-yl)pyrimidine-5-sulfonamide]	< 0.5	224 to 226
C[C@H](NS(=O)(=O)c1ccc(-c2c(C#N)c3cnc(Cl)cc3n2C2CCCC2)cc1)C(F)(F)F [Cpd 87, 4-(6-chloro-3-cyano-1-cyclopentyl-1H-pyrrolo[3,2-c]pyridin-2-yl)-N-[(2S)-1,1,1-trifluoropropan-2-yl]benzenesulfonamide]	< 0.5	238 to 240
C[C@@H](NS(=O)(=O)c1ccc(-c2c(C#N)c3cnc(Cl)cc3n2C2CCCC2)cc1)C(F)(F)F [Cpd 88, 4-(6-chloro-3-cyano-1-cyclopentyl-1H-pyrrolo[3,2-c]pyridin-2-yl)-N-[(2R)-1,1,1-trifluoropropan-2-yl]benzenesulfonamide]	< 0.5	239 to 241
N#Cc1c(-c2ccc(S(=O)(=O)NC3(C(F)(F)F)CC3)cc2)n(C2CCCC2)c2cc(Cl)ncc12 [Cpd 89, 4-(6-chloro-3-cyano-1-cyclopentyl-1H-pyrrolo[3,2-c]pyridin-2-yl)-N-[1-(trifluoromethyl)cyclopropyl]benzenesulfonamide]	2 to 5	288 to 289
Cc1ccc2c(C#N)c(-c3ccc(S(=O)(=O)N[C@@H](C)C(F)(F)F)cc3)n(C3CCC3)c2n1 [Cpd 90, 4-(3-cyano-1-cyclobutyl-6-methyl-1H-pyrrolo[2,3-b]pyridin-2-yl)-N-[(2S)-1,1,1-trifluoropropan-2-yl]benzenesulfonamide]	< 0.5	169 to 177
Cc1ccc2c(C#N)c(-c3ccc(S(=O)(=O)NC4(C(F)(F)F)CC4)cn3)n(C3CCC3)c2n1 [Cpd 94, 6-(3-cyano-1-cyclobutyl-6-methyl-1H-pyrrolo[2,3-b]pyridin-2-yl)-N-[1-(trifluoromethyl)cyclopropyl]pyridine-3-sulfonamide]	< 0.5	230 to 236
Cc1ccc2c(C#N)c(-c3ccc(S(=O)(=O)NC(C)C)nc3)n(C3CCC3)c2n1 [Cpd 96, 5-(3-cyano-1-cyclobutyl-6-methyl-1H-pyrrolo[2,3-b]pyridin-2-yl)-N-(propan-2-yl)pyridine-2-sulfonamide]	< 0.5	211 to 216
N#Cc1c(-c2ccc(S(=O)(=O)NC(CF)CF)cn2)n(C2CCC2)c2cc(Cl)ncc12 [Cpd 97, 6-(6-chloro-3-cyano-1-cyclobutyl-1H-pyrrolo[3,2-c]pyridin-2-yl)-N-(1,3-difluoropropan-2-yl)pyridine-3-sulfonamide]	< 0.5	215 to 216
N#Cc1c(-c2ccc(S(=O)(=O)NC3(C(F)(F)F)CC3)cn2)n(C2CCC2)c2cc(Cl)ncc12 [Cpd 98, 6-(6-chloro-3-cyano-1-cyclobutyl-1H-pyrrolo[3,2-c]pyridin-2-yl)-N-[1-(trifluoromethyl)cyclopropyl]pyridine-3-sulfonamide]	< 0.5	227 to 228
CC1(NS(=O)(=O)c2ccc(-c3c(C#N)c4cnc(Cl)cc4n3C3CCC3)nc2)CC1 [Cpd 99, 6-(6-chloro-3-cyano-1-cyclobutyl-1H-pyrrolo[3,2-c]pyridin-2-yl)-N-(1-methylcyclopropyl)pyridine-3-sulfonamide]	< 0.5	167 to 168
CC(C)NS(=O)(=O)c1cnc(-c2c(C#N)c3cnc(Cl)cc3n2C2CCC2)nc1 [Cpd 100, 2-(6-chloro-3-cyano-1-cyclobutyl-1H-pyrrolo[3,2-c]pyridin-2-yl)-N-(propan-2-yl)pyrimidine-5-sulfonamide]	< 0.5	238 to 239
N#Cc1c(-c2ncc(S(=O)(=O)NC(CF)CF)cn2)n(C2CCC2)c2cc(Cl)ncc12 [Cpd 101, 2-(6-chloro-3-cyano-1-cyclobutyl-1H-pyrrolo[3,2-c]pyridin-2-yl)-N-(1,3-difluoropropan-2-yl)pyrimidine-5-sulfonamide]	< 0.5	237 to 238
C[C@H](NS(=O)(=O)c1ccc(-c2c(C#N)c3cnc(Cl)cc3n2C2CCC2)cc1)C(F)(F)F [Cpd 102, 4-(6-chloro-3-cyano-1-cyclobutyl-1H-pyrrolo[3,2-c]pyridin-2-yl)-N-[(2S)-1,1,1-trifluoropropan-2-yl]benzenesulfonamide]	< 0.5	202 to 203
C[C@H](NS(=O)(=O)c1ccc(-c2c(C#N)c3ccncc3n2C2CCC2)nc1)C(F)(F)F [Cpd 103, 6-(3-cyano-1-cyclobutyl-1H-pyrrolo[2,3-c]pyridin-2-yl)-N-[(2S)-1,1,1-trifluoropropan-2-yl]pyridine-3-sulfonamide]	< 0.5	199 to 201
C[C@@H](NS(=O)(=O)c1ccc(-c2c(C#N)c3cc(Cl)ncc3n2C2CCC2)nc1)C(F)(F)F [Cpd 104, 6-(5-chloro-3-cyano-1-cyclobutyl-1H-pyrrolo[2,3-c]pyridin-2-yl)-N-[(2R)-1,1,1-trifluoropropan-2-yl]pyridine-3-sulfonamide]	< 0.5	181 to 185
C[C@@H](NS(=O)(=O)c1ccc(-c2c(C#N)c3cc(Cl)ncc3n2C2CCC2)cc1)C(F)(F)F [Cpd 105, 4-(5-chloro-3-cyano-1-cyclobutyl-1H-pyrrolo[2,3-c]pyridin-2-yl)-N-[(2R)-1,1,1-trifluoropropan-2-yl]benzenesulfonamide]	< 0.5	248 to 250
N#Cc1c(-c2ccc(S(=O)(=O)NC3CC3)cn2)n(C2CCC2)c2cnc(Cl)cc12 [Cpd 106, 6-(5-chloro-3-cyano-1-cyclobutyl-1H-pyrrolo[2,3-c]pyridin-2-yl)-N-cyclopropylpyridine-3-sulfonamide]	< 0.5	170 to 172
C[C@@H](NS(=O)(=O)c1ccc(-c2c(C#N)c3cc(C#N)cnc3n2C2CCC2)nc1)C(F)(F)F [Cpd 107, 6-(3,5-dicyano-1-cyclobutyl-1H-pyrrolo[2,3-b]pyridin-2-yl)-N-[(2R)-1,1,1-trifluoropropan-2-yl]pyridine-3-sulfonamide]	< 0.5	202 to 203
C[C@H](NS(=O)(=O)c1ccc(-c2c(C#N)c3cc(C#N)cnc3n2C2CCC2)nc1)C(F)(F)F [Cpd 108, 6-(3,5-dicyano-1-cyclobutyl-1H-pyrrolo[2,3-b]pyridin-2-yl)-N-[(2S)-1,1,1-trifluoropropan-2-yl]pyridine-3-sulfonamide]	< 0.5	203 to 204
C[C@H](NS(=O)(=O)c1cnc(-c2c(C#N)c3cc(C#N)cnc3n2C2CCC2)nc1)C(F)(F)F [Cpd 109, 2-(3,5-dicyano-1-cyclobutyl-1H-pyrrolo[2,3-b]pyridin-2-yl)-N-[(2S)-1,1,1-trifluoropropan-2-yl]pyrimidine-5-sulfonamide]	< 0.5	216 to 219
C[C@H](NS(=O)(=O)c1ccc(-c2c(C#N)c3cc(C#N)cnc3n2C2CCC2)cc1)C(F)(F)F [Cpd 110, 4-(3,5-dicyano-1-cyclobutyl-1H-pyrrolo[2,3-b]pyridin-2-yl)-N-[(2S)-1,1,1-trifluoropropan-2-yl]benzenesulfonamide]	< 0.5	241 to 243
